Data as given in patent publication US7999108B2, “Benzyl amines, a process for their production and their use as anti-inflammatory agents” (Bayer Schering Pharma AG, priority 2006, dated 2011).
pIC50: −log10 of the molar value.

Assays:
[1] = tested on: secretion of cytokine IL-8 in human monocyte cell line THP-1 triggered by lipopolysaccharide (LPS); experiment: Inhibition of LPS-triggered IL-8 secretion in THP-1 cells (ELISA); type: cell-based; settings: IL-8 in supernatant by ELISA, read-out: IC50(IL8)
Procedure: The concentration of the cytokines was determined in the supernatant by means of commercially available ELISA kits.

[2] = biological target: T1, glucocorticoid receptor (GR) (Homo sapiens, UniProt P04150); experiment: Binding to the glucocorticoid receptor (GR), recombinantly produced receptor, Sf9 cytosol preparations; settings: recombinant GR, cytosol of baculovirus-infected Sf9 cells, reference [3H]-dexamethasone
T1 construct: made in house; host or cells: Sf9 insect cells infected with recombinant baculovirus; cytosol preparation
T1 sequence (P04150 1-777): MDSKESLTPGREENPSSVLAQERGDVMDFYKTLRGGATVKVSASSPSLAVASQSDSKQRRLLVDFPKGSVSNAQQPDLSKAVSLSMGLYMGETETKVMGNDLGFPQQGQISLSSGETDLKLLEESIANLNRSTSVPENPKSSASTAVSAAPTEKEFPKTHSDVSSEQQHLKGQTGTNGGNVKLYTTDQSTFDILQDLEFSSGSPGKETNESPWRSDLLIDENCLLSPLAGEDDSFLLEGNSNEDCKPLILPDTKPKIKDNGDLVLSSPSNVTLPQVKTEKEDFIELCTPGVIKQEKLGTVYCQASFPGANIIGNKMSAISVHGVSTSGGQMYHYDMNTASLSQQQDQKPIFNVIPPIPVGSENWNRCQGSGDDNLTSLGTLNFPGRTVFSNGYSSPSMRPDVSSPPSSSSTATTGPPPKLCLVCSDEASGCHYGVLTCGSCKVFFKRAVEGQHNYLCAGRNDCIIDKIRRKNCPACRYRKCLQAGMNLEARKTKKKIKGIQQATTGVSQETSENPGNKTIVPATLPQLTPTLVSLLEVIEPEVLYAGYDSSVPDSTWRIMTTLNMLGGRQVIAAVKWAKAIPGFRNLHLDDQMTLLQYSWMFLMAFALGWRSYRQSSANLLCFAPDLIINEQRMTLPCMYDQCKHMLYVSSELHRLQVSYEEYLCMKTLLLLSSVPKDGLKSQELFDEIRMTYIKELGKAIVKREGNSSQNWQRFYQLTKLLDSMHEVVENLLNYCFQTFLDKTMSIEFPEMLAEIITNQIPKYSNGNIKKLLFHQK
Description: The binding of the substances to the glucocorticoid receptor (GR) and other steroid hormone receptors (mineral corticoid receptor (MR), progesterone receptor (PR) and androgen receptor (AR)) is examined with the aid of recombinantly produced receptors. Cytosol preparations of Sf9 cells, which had been infected with recombinant baculoviruses, which code for the GR, are used for the binding studies. In comparison to reference substance [^3H]-dexamethasone, the substances show a high to very high affinity to GR.

pIC50 [1]: 7.60
pIC50 [2]: 7.19
SMILES: COc1cccc(C(Nc2cccc3nc(C)ccc23)C(O)(CCl)C(F)(F)F)c1 (centres unmarked) [Example 3]
